Where no end group is shown, it is not given here.
What was measured:
[1] = system: P6 cells (murine Balb/c3T3 cells transfected with human IGF1R gene); test: Cellular uptake of fluoresceinated compounds, confocal fluorescence microscopy; type: cell-based; details: 1 μM, 4 hours at 37° C., serum-free DMEM
Description: P6 cells, which are murine Balb/c3T3 cells transfected with human insulin-like growth factor receptor (IGF1R) gene, overexpress IGF1R. The cells were plated on LAB TEK 8 well tissue culture "CHAMBER SLIDES" from Nunc, Inc., Naperville, Ill. in 10% FBS/DMEM at a concentration of 20,000 cells/chamber. The cells were allowed to attach and grow for 24 hours in a humidified cell incubator with 5% CO2 at 37° C. The attached cells were then washed with serum-free DMEM and PBS. The cells were incubated for 4 hours at 37° C. with 1 μM of the fluoresceinated PNA-peptide (H-Gly-SEQ ID NO:5/SEQ ID NO: 1) or fluoresceinyl-PNA (H-Gly-SEQ ID NO:5-CONH2) in serum-free DMEM. Human Jurkat cells, which have very low copies of IGF1R (Lal et al., Leukemia Res. 17, 31-35, 1983) were used as a negative control. The Jurkat cells were grown in 10% FBS/RPMI. The Jurkat cells were treated in the same manner as the P6 cells, except that necessary modifications were made in handling the cells as they grow in suspension. […]
The fixed slides were analyzed under laser confocal fluorescence and phase contrast microscopy to observe the cellular uptake of the fluorescent oligomers. […] This is an advantage over conventional fluorescence microscopy, which cannot differentiate between signals inside and outside of the cells.

[2] = system: tumor cell lines dependent on IGFR1; details: Pietrzkowski et al., Cancer Res. 52, 6447-6451, 1992; cited from earlier work
[3] = molecular target: IGF1-R (Homo sapiens, UniProt P08069); details: Pietrzkowski et al., Cancer Res. 52, 6447-6451, 1992; cited from earlier work
[4] = Serum stability of the PNA-peptide conjugate; type: in vitro ADME; details: 10% fetal bovine serum/PBS, 12 hours and 24 hours, reverse phase HPLC
Description: The title conjugate was incubated in 10% fetal bovine serum/PBS for 12 hours and 24 hours. After the incubation, one volume of acetonitrile was added to precipitated protein, which was pelleted by centrifugation. Free conjugate in the supernatant was dried under vacuo. It was then analyzed by reverse phase HPLC as described above.

[5] = system: Balb/c3T3 cells; test: Cellular uptake of [14C]PNA derivatives; type: cell-based, murine; details: Balb/c3T3 cells (low levels of IGF1R), 14C-labeled derivatives, FIG. 7
[6] = system: Jurkat cells; test: Cellular uptake of [14C]PNA derivatives; type: cell-based, Human; details: Jurkat cells (virtually no IGF1R), 1 μM 14C-labeled derivatives, FIG. 8
Description: (§1) Uptake studies with radiolabeled PNA derivatives were carried out. P6 or Jurkat cells above were plated in 12.5 cm^2 flasks and grown for two days to 50-80% confluence, on the order of 10^6 cells per flask. The medium was then removed and replaced with fresh medium containing 1 μM of the various [^14 C]PNA derivatives, pre-warmed to 37° C.; background cells received medium with no [^14 C]PNA derivatives. After incubation for various times, attached cells were washed directly in the flasks using four washes--once with fresh medium, once with PBS, once with high salt/low pH buffer, and once with PBS. […]
(§2) After the final wash, the cells were lysed in 1 ml of 1% SDS in H2 O, and the samples were processed for total protein measurement and liquid scintillation counting. 50 μl of the lysate was allocated for total protein measurement, and ^14 C activity in the remaining lysate was measured by liquid scintillation counting, from which background counts were subtracted. […]
(§3) Control samples of varying confluence were trypsinized following the last wash, resuspended in PBS for cell counting, and then lysed to obtain total protein values. […] The curve was used to estimate cell counts from the total protein measurements of treated cells, and radioactivity counts were used to calculate pmoles of oligonucleotide using the specific activity of each labeled oligonucleotide. […]

[7] = system: P6 cells; test: Cellular uptake of [14C]PNA derivatives; type: cell-based, murine; details: 1 μM 14C-labeled derivatives, FIG. 6
Description: as §1, §2, §3

Sequence of IGF1-R (P08069 31-736 limits assumed): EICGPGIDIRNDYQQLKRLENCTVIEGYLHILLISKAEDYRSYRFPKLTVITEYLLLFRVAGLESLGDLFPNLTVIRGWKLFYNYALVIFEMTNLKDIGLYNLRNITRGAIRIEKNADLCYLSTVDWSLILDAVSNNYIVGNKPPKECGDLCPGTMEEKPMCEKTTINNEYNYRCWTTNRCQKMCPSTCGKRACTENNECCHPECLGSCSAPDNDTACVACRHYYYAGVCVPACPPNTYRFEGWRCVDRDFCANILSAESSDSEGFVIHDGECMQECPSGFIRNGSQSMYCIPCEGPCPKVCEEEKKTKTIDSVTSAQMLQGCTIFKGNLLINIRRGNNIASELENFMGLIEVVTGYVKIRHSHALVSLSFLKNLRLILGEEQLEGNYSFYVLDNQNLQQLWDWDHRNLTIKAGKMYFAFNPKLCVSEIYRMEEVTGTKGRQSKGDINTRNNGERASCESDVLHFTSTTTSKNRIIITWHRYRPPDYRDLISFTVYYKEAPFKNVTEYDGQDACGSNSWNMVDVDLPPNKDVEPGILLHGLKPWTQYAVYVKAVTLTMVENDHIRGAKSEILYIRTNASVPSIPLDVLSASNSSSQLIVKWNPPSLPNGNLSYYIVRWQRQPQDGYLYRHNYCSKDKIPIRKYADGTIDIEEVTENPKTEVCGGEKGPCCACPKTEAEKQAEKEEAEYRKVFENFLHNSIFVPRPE
Sequence of IGF1-R (P08069 741-1367 partner limits assumed): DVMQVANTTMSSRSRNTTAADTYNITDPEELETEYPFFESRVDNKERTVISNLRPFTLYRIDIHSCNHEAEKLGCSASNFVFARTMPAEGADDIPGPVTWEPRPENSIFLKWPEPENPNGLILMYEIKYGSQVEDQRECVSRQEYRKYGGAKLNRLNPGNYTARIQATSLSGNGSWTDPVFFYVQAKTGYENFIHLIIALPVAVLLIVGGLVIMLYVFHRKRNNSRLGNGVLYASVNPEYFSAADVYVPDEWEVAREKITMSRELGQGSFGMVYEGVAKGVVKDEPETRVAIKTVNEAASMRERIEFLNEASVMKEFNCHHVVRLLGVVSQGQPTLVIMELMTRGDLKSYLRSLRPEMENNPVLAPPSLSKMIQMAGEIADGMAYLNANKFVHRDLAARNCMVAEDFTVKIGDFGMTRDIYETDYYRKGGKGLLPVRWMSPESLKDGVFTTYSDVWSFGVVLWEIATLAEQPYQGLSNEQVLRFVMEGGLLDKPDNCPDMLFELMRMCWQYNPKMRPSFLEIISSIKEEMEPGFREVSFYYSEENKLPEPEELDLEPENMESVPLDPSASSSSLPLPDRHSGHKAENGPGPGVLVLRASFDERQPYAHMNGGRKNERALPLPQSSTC

O=C1OC2(c3ccc(O)cc3Oc3cc(O)ccc32)c2ccccc21 [fluorescein]
cellular uptake (fluorescence within the cells) [1]: absence of uptake

CSKAPKLPAAYC (cysteine pairing not given here) [SEQ ID NO:8]
inhibition of proliferation/growth of tumor cell lines [2]: inhibits the growth of certain cancer cell lines | competition with the natural ligand for binding to IGF1-R [3]: competes with the natural ligand for binding to IGF1-R

GCSKAPKLPAALC (cysteine pairing not given here) [SEQ ID NO:4]
inhibition of proliferation/growth of tumor cell lines [2]: inhibits the proliferation of tumor cell lines dependent on IGFR1

H-Gly-CCGCTTCCTTTC-Gly-Gly-Gly-Gly-D-Cys-D-Ser-D-Lys-D-Cys-NH2 [title PNA-peptide conjugate]
stability of the conjugate in serum [4]: stability of the conjugate was confirmed | uptake relative to the controls [5]: four-fold excess | uptake relative to the controls [6]: little preferential uptake | uptake relative to control PNA or control PNA-peptide [7]: five-fold more uptake

From patent US6180767A, “Peptide nucleic acid conjugates” (Thomas Jefferson University, priority 1997, dated 2001)
